Consider twelve compounds from article PMC10094048, “Synthesis and Anticancer Evaluation of 4-Anilinoquinolinylchalcone Derivatives” (International Journal of Molecular Sciences, 2023).

One data set concerns retinoblastoma cells. More on the design: method as in PMID 26564153. To be noted: cited from earlier work.
Data set [1] has as its system human retinoblastoma Y79 cell. The arrangement: method as in PMID 26564153. To be noted: 48 h XTT assay; read-out: IC50 Y79 cell proliferation; cited from earlier work.
The conditions of data set [2]: cited from earlier work.
Another data set concerns H1299. The arrangement: method as in PMID 23237975. To be noted: read-out: IC50 against the growth of H1299; cited from earlier work.
The next data set relates to MRC-5. The experiment in a line: XTT antiproliferative assay, normal lung cells MRC-5. In kind it is cell-based. To be noted: Homo sapiens, MRC5, 72 h, mean ± SD. How it is done:
(§1) All the synthesized 4-anilinoquinolinylchalcone derivatives were evaluated in vitro against two cancer cells (Huh-7 and MDA-MB-231) and a non-cancer normal fibroblast lung cell line (MRC-5) using an XTT (sodium 3′-[1-(phenylamino-carbonyl)-3,4-tetrazolium}-bis(4-methoxy-6-nitro)benzene sulfonic acid hydrate) assay. The concentration that inhibited the growth of 50% of cells (IC50) was determined from the linear portion of the curve by calculating the concentration of the tested agent that reduced absorbance in treated cells, compared to control cells, by 50%. The IC50 results of these 4-anilinoquinolinylchalcone derivatives are summarized (Table 1). […] Thus, 4a was selected as a lead compound for further mechanism studies.
(§2) Cancer cells (Huh-7, MDA-MB-231) and normal lung cells (MRC-5) were purchased from Bioresources Collection and Research Center, Taiwan. Cells were maintained in the same standard medium, grown as a monolayer in DMEM (Gibco, Miami, FL, USA), and supplemented with 10% fetal bovine serum (FBS) and antibiotics, i.e., 100 IU/mL penicillin, 0.1 mg/mL streptomycin and 0.25 μg/mL amphotericin. The culture was maintained at 37 °C with 5% CO2 in a humidified atmosphere. Cells (5 × 10^3 cells/well) were treated with tested compounds for 72 h in the medium containing 10% FBS. Cell viability was quantitated with the use of sodium 3′-[1-(phenylamino-carbonyl)-3,4-tetrazolium}-bis(4-methoxy-6-nitro)benzene sulfonic acid hydrate (XTT) colorimetric assay (Biological Industries, Beit-Haemek, Israel). XTT labeling reagent (1 mg/mL) was mixed with electron-coupling reagent, following the manufacturer’s instructions, and 50 μL of the mixture was added directly to the cells. The plates were further incubated at 37 °C for 4 h. Color was measured spectrophotometrically in a microtiter plate reader at 492 nm and used as a relative measurement of viable cell numbers. After drug treatment, the viable cell number was compared to the solvent and untreated control cell number. This information was used to determine the percent of control growth as (Abtreated/Abcontrol) × 100, where Ab represents the mean absorbance (n = 3). The concentration that killed 50% of cells (IC50) was determined from the linear portion of the curve by calculating the concentration of the agent that reduced the absorbance in treated cells, compared to control cells, by 50%.
For orientation: Formazan colour is commonly taken as a measure of viable cells.

For another data set, the system named is SKBR-3. The arrangement: method as in PMID 23237975. To be noted: read-out: IC50 against the growth of SKBR-3; cited from earlier work.
Data set [3] relates to MDA-MB-231. More on the design: method as in PMID 23237975. To be noted: value marked with footnote c; cited from earlier work.
Data set [4] deals with rheumatoid arthritis fibroblast-like synoviocytes. To be noted: cited from earlier work.
Data set [5] relates to non-small-cell lung A549 cancer cells. To be noted: 48 h trypan blue exclusion assay; read-out: IC50 antiproliferation A549; cited from earlier work.
Data set [6] concerns breast cancer MDA-MB-231 cells. Description: Caspase 3/7 luminescence assay. In kind it is cell-based, human. To be noted: for caspase 3/7 activation: 24 h. How it is done:
Using the caspase 3/7 luminescence assay, the modulating ability of breast cancer MDA-MB-231 cells on caspase 3/7 signaling with compound 4a was evaluated. […] Moreover, this caspase 3/7 activation with compound 4a was suppressed by NAC pretreatment.
Caspase 3/7 activation is the essential process for apoptosis, which was measured by the caspase-Glo® 3/7 assay (Promega; Madison, WI, USA), and its signal was read and recorded by a Luminometer (Berthold Technologies GmbH & Co., Bad Wildbad, Germany). The role of the induction of ROS affecting caspase 3/7 activity in drug-treated cells was evaluated by the 1 h pretreatment of 10 mM NAC [45, 49, 50].

For data set [7], the system named is breast cancer MDA-MB-231 cells. The experiment in a line: Annexin V/7AAD apoptosis assay (flow cytometry). It counts as cell-based, human. To be noted: MDA-MB-231, 24 h, 5 and 10 μM versus control and 1 μM. How it is done: To examine the apoptosis-inducing ability of compound 4a, the annexin V/7-aminoactinomycin D (7-AAD) change in breast cancer MDA-MB-231 cells was assessed. […] Compound 4a, consisting of both versatile quinoline and chalcone moieties, was also active in inducing cancer cell apoptosis.
Annexin V/7AAD flow cytometry was a common method for detecting apoptosis. The commercial product containing annexin V-FITC (1:1000) and 7AAD (1 μg/mL) (Strong Biotech; Taipei, Taiwan) was applied to stain drug-treated cells for 1 h. Finally, these stained cells were conducted with flow cytometry (Guava easyCyte, Luminex, TX, USA).
In general terms: Flow cytometry measures light scatter and fluorescence of single cells or particles in a stream.

The test system of data set [8] is MDA-MB-231. Description: XTT antiproliferative assay, MDA-MB-231. In kind it is cell-based. To be noted: Homo sapiens, 72 h, mean ± SD. The procedure: as §1, §2
The test system of data set [9] is breast cancer MDA-MB-231 cells. The experiment in a line: ROS assay (H2DCFDA flow cytometry). To be noted: MDA-MB-231, 24 h. In kind it is cell-based, human. The procedure:
To evaluate the ROS-inducing ability of compound 4a, the flow cytometry-based ROS detection of breast cancer MDA-MB-231 cells was conducted.
The oxidative stress indicator, such as ROS, was selected to assess the impact of drug treatment on the change in oxidative stress. According to the manufacturer’s instructions, the ROS reacting probe 2′,7′-dichlorodihydrofluorescein diacetate (H2DCFDA) (Sigma-Aldrich) was applied to drug-treated cells. Finally, these stained cells were conducted with flow cytometry.

Data set [10] relates to breast cancer MDA-MB-231 cells. The experiment in a line: Cellular ATP assay (ATPlite luminescence). In kind it is cell-based, human. To be noted: MDA-MB-231, 24 h. The procedure:
ATP levels are another cell viability indicator [31, 32, 33]. To further confirm the inhibition of the cell proliferative ability of compound 4a, the cellular ATP levels of breast cancer MDA-MB-231 cells were assessed (Figure 2).
Cellular ATP was determined using the ATPlite luminescence reagent (PerkinElmer Life Sciences, Boston, MA, USA). According to the user instruction, the cell lysate of treated cells was reacted with ATPlite substrate for 5 min in the dark. Finally, the luminescence was detected by a luminometer (Berthold Technologies GmbH & Co., Bad Wildbad, Germany).

For data set [11], the system named is Huh-7. The experiment in a line: XTT antiproliferative assay, Huh-7. In kind it is cell-based. To be noted: Homo sapiens, 72 h, mean ± SD. The procedure:
as §1, §2

Data set [12] deals with Huh-7. More on the design: method as in PMID 31234033. To be noted: Chen et al.; cited from earlier work.
A further data set deals with HA22T. The arrangement: method as in PMID 31234033. To be noted: Chen et al.; cited from earlier work.
The subject of a further data set is HepG2. More on the design: method as in PMID 31234033. To be noted: Chen et al.; cited from earlier work.
The test system of a further data set is MDA-MB-231 cell line. More on the design: method as in PMID 31234033. To be noted: after 24 h of treatment; read-out: IC50 cytotoxicity on MDA-MB-231; cited from earlier work.

Where a name gives a salt, the structure may show the parent alone. Read-outs that look alike come from different tables or passages of the source. A value given as a limit tells only on which side of the number the result lay.

For the compound `O=C1c2cc(OCCN3CCCC3)ccc2-c2c(-c3ccc(OCCN4CCCC4)cc3)nc3ccc(OCCN4CCCC4)cc3c21` [BPIQ, 2,9-bis [2-(pyrrolidin-1-yl)ethoxy]-6-{4-[2-(pyrrolidin-1-yl)ethoxy]phenyl}-11H-indeno[1,2-c]quinolin-11-one], the ROS production entry in the data set with retinoblastoma cells is “induces ROS production”. In addition, the IC50 in data set [1] is 13.6 µM. For the same compound, the apoptosis induction entry in data set [2] is recorded as “apoptosis induction”.

Consider `COc1ccc(-c2cc3ccccc3nc2/C=C/C(=O)c2ccccc2)cc1` [Compound 1, (E)-3-[3-(4-methoxyphenyl)quinolin-2-yl]-1-phenylprop-2-en-1-one], for which the IC50 in the data set with H1299 was 1.41 µM; in the data set with MRC-5, 0.66 ± 0.06 µM; in the data set with SKBR-3, 0.7 µM; in the data set on MDA-MB-231 [3], 0.86 ± 0.07 µM.

As for `COc1cc(/C=C/C(=O)c2ccc3ccccc3c2O)cc(OC)c1` [(E)-3-(3,5-dimethoxyphenyl)-1-(1-hydroxynaphthalen-2-yl) prop-2-en-1-one], in data set [4], the ROS burst result is listed as “evoke ROS burst”.

Regarding `CN(C)CCCOc1ccc(-c2nc3ccc(F)cc3c3c2-c2ccc(OCCCN(C)C)cc2C3=O)cc1` [DFIQ], in [5], the IC50 was 3.53 µM.

For `COc1ccc(C(=O)/C=C/c2cc(Nc3ccc(OCc4ccc(Cl)cc4)cc3)c3ccccc3n2)cc1` (as salt: salt) [Compound 4g, (E )-3-{4-{{4-[(4-Chlorobenzyl)oxy]phenyl}amino}quinolin-2-yl}-1-(4-methoxy - phenyl)prop-2-en-1-one], the melting point (as a rule, the temperature, or range, at which the solid turns liquid) lay in the range of 142 to 143 °C.

With `COc1ccc(C(=O)/C=C/c2cc(Nc3ccc(OCc4ccccc4Cl)cc3)c3ccccc3n2)cc1` (as salt: salt) [Compound 4b, (E)-3-{4-{{4-[(2-Chlorobenzyl)oxy]phenyl}amino}quinolin-2-yl}-1-(4-methoxy - phenyl) prop-2-en-1-one], the melting point lay within 160 to 161 °C.

In turn, `O=C(/C=C/c1cc(Nc2ccc(OCc3ccccc3)cc2)c2ccccc2n1)c1ccc(F)cc1` (as salt: salt) [Compound 5a, (E)-3-{4-{[4-(Benzyloxy)phenyl]amino}quinolin-2-yl}-1-(4-fluorophenyl)prop-2-en-1-one] registered a melting point of 162 to 163 °C.

Compound `COc1ccc(C(=O)/C=C/c2cc(Nc3ccc(OCc4ccccc4)cc3)c3ccccc3n2)cc1` (as salt: salt) [Compound 4a, (E)-3-{4-{[4-(Benzyloxy)phenyl]amino}quinolin-2-yl}-1-(4-methoxyphenyl)prop-2-en-1-one] gave a melting point of 200 to 201 °C.

`COc1ccc(C(=O)/C=C/c2cc(Nc3ccc(OCc4ccccc4)cc3)c3ccccc3n2)cc1` [Compound 4a, (E)-3-{4-{[4-(Benzyloxy)phenyl]amino}quinolin-2-yl}-1-(4-methoxyphenyl)prop-2-en-1-one]: the “caspase 3/7 activation” value in [6] (MDA-MB-231, 1 μM) was “inactive”; in data set [6] (MDA-MB-231, 5 and 10 μM) it was “significant caspase 3/7 activation”. Further, the “caspase 3/7 activation after NAC pretreatment” value in data set [6] (MDA-MB-231, 1 h pretreatment of 10 mM NAC, then 4a 24 h) was “suppressed”. In data set [7], the “annexin V/7AAD apoptosis” value was “more significant apoptosis”. The IC50 is above 20 µM in the data set on MRC-5, 0.11 ± 0.07 µM with MDA-MB-231 [8] and 1.47 ± 0.07 µM in the data set with Huh-7 [11]. Moreover, the ROS induction result in [9] is recorded as “dose-responsive induction of ROS”. The “cellular ATP levels” value in [10] is “dose-responsive downregulation of ATP”.

Turning to `O=C(/C=C/c1cc(Nc2ccc(OCc3cccc(F)c3)cc2)c2ccccc2n1)c1ccc(F)cc1` (as salt: salt) [Compound 5e, (E)-3-{4-{{4-[(3-Fluorobenzyl)oxy]phenyl}amino}quinolin-2-yl}-1-(4-fluorophenyl)prop-2-en-1-one], the melting point lay within 213 to 214 °C.

With `CS(=O)(=O)CCNCc1ccc(-c2ccc3ncnc(Nc4ccc(OCc5cccc(F)c5)c(Cl)c4)c3c2)o1` [Lapatinib], the IC50 in the data set with MRC-5 is above 20 µM; in the data set with MDA-MB-231 [8], 12.8 ± 0.91 µM; with Huh-7 [12], 2.11 µM; in the data set on HA22T, 4.85 µM; in the data set with Huh-7 [11], 12.5 ± 0.28 µM; with HepG2, 3.42 µM. For the same compound, the IC50 in the data set with MDA-MB-231 cell line was 32.5 µM.

In the case of `O=C(/C=C/c1cc(Nc2ccc(OCc3ccccc3Cl)cc2)c2ccccc2n1)c1ccc(F)cc1` (as salt: salt) [Compound 5b, (E)-3-{4-{{4-[(2-Chlorobenzyl)oxy]phenyl}amino}quinolin-2-yl}-1-(4-fluorophenyl) prop-2-en-1-one], the melting point is 192 to 193 °C.
